The pIC50 is the negative decadic logarithm of the IC50, by convention in mol/L.

Among the data in patent US7144889B2, “Triarylimidazoles” (Hoffman-La Roche Inc., priority 2003, dated 2006) are IC50 values, retold here.

Structures are written as SMILES. pIC50: −log10 of the molar value.

The experiment addresses T1, c-met (Homo sapiens, UniProt P08581).
T1 construct: endogenous in cells; host or cells: HT29 (ATCC HTB-38), human colon adenocarcinoma
Kind of experiment: C-met Autoactivation Kinase Assay (AKA), ELISA type assay on HT29 cell lysate. In kind it is biochemical. As to conditions: phosphorylation of c-met from HT29 lysate, 40 μM ATP. An excerpt:
C-met Autoactivation Kinase Assay (AKA)
C-met is a typical tyrosine kinase which is involved in metastasis, proliferation/apoptosis and angiogenesis of tumors. The assay is an ELISA type assay measuring the phosphorylation of c-met using a phospho-tyrosine specific antibody.
Cell lysate of human colon adenocarcinoma HT29 known for its high content of c-met is bound to the wells of a microtiterplate (MTP) via an anti-hHGF receptor antibody (anti-hHGFR). ATP-phosphorylation of c-met is detected in presence or absence of the test compounds by using a phospho-tyrosine mouse IgG and a POD labeled goat anti-mouse IgG detection system. Using the classical POD substrate TMB, an absorption at 450 nm/620 nm is used to calculate enzymatic activity.
Plates: 96-well polystyrene plates (NUNC) streptavidin-coated microtiter plates Cell line/Lysate: HT29 (ATCC HTB-38), human colon adenocarcinoma (confluence: 2.5×10^5 cells/cm^2) are washed with PBS and incubated with Lysis buffer for 10 min on ice. Supernatent is collected and diluted with TBS. Lysate is shockfrozen in liquid nitrogen and stored at −80° C.)
Reagents (all working solutions are kept at 4° C., unless stated otherwise): • anti-hHGFR detection stock solution: 50 μg/ml (R&D Systems, Cat.No. BAF 358) antibody final conc.: 1 μg/ml • p-Tyr (PY99) mouse stock solution: 200 μg/ml (Santa Cruz Biotechnology, monoclonal IgG2b Cat.No. SC-7020) final conc.: 0.2 μg/ml • goat-anti-mouse IgG: 2 ml (BIO RAD, Cat.No. 170–6516) • (H+L)-HRP Conjugate; final conc.: 1:2000 • Blocking Reagent: Roche Diagnostics GmbH, Cat.No.1 112589 for ELISA diluted 1:10 in TBS • ATP: Adenosine-5′-triphosphate, stock solution 10 mM, stock solution 10 mM (Roche Diagnostics GmbH, Cat.No. 127531) final conc.: 40 μM • TBS: Tris-buffered saline, 50 mM TRIS pH 7.5 (Roche Diagnostics GmbH, Cat.No. 708976), 150 mM NaCl (SIGMA, Cat.No. S-3014) • Wash buffer TBS-T: Tris-buffered saline, 50 mM TRIS pH 7.5 150 mM NaCl, containing 0.5% Tween20 • Kinase buffer: Tris-buffered saline, 50 mM TRIS pH 7.5, 100 mM NaCl, 60 mM MgCl2 (SIGMA Chemical Company, Cat.No. M-1028) • Lysis buffer: 50 mM TRIS pH 7.5 containing 1% Nonidet P40 (Roche Diagnostics GmbH, Cat.No.1754599) 0.5 % Deoxycholic acid (SIGMA Chemical Company, Cat.No. D-6750) final conc.: 1 mM 1 mM PMSF stock solution 70 mM (Roche Diagnostics GmbH, Cat.No.837091 40 μl/ml Complete (Roche Diagnostics GmbH, Cat.No. 1836145) Final conc.: 40 μ/ml • TMB: Tetramethylbenzidine (Intergen Company, Cat.No. 91000) • Samples: 10 mM in DMSO (stored at −20° C.), thawed at room temperature Procedure: […]
(In general: ELISA stands for enzyme-linked immunosorbent assay.)

T1 sequence (P08581 25-1390): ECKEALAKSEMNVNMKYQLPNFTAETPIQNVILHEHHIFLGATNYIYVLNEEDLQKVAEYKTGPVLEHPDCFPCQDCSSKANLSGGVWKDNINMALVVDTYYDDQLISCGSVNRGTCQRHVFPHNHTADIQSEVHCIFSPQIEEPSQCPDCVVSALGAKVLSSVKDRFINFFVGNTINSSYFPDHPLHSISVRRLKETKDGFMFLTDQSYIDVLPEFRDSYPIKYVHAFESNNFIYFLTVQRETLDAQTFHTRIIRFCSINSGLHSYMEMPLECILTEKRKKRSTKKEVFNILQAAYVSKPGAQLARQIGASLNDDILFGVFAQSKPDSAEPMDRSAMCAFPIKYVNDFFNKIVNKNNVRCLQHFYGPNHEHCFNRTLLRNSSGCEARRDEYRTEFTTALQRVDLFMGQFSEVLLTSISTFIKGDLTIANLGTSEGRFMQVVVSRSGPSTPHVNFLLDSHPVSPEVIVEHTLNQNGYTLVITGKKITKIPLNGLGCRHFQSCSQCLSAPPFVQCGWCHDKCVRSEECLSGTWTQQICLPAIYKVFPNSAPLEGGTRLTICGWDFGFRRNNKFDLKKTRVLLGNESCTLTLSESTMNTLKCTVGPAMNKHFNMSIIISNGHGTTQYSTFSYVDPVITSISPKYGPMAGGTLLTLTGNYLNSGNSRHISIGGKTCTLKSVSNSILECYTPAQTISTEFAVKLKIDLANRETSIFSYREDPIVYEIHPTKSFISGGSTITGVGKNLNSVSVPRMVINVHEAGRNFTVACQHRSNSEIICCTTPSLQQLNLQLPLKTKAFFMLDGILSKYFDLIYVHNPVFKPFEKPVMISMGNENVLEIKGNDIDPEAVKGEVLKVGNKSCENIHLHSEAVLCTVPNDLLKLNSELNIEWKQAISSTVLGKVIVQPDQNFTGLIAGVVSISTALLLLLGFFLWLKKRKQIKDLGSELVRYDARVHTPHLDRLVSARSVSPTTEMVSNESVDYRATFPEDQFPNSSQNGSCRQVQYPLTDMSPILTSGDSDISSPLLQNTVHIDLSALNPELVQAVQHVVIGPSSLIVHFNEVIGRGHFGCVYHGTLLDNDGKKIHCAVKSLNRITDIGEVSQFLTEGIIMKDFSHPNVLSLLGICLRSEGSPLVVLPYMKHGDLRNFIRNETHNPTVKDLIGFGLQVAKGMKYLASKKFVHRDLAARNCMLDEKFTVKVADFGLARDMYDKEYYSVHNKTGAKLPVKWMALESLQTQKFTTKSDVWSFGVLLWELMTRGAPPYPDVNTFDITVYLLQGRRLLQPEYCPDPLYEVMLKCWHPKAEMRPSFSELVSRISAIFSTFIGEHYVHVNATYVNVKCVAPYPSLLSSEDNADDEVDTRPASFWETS

Turning to `OCCCNc1nccc(-c2[nH]c(-c3c(Cl)cc(OCCO)cc3Cl)nc2-c2cccc(OCc3cccnc3)c2)n1` [Example H2, 2-(2,6-dichloro-4-[2-hydroxyethoxy]phenyl)-4-(3-(3-pyridinylmethyloxy)phenyl)-5-(2-[3-hydroxypropylamino]pyrimidin-4-yl)-N-1H-imidazole], the pIC50 was 7.49. For the molecule `OCCCNc1nccc(-c2[nH]c(-c3c(Cl)cc(OCCO)cc3Cl)nc2-c2cccc(OCc3ccccn3)c2)n1` [Example H1, 2-(2,6-dichloro-4-[2-hydroxyethoxy]phenyl)-4-(3-(2-pyridinylmethyloxy)phenyl)-5-(2-[3-hydroxypropylamino]pyrimidin-4-yl)-N-1H-imidazole], the pIC50 was 7.66. `OCCCNc1nccc(-c2[nH]c(-c3c(Cl)cc(OCCO)cc3Cl)nc2-c2cccc(OCc3ccncc3)c2)n1` [Example H3, 2-(2,6-dichloro-4-[2-hydroxyethoxy]phenyl)-4-(3-(4-pyridinylmethyloxy)phenyl)-5-(2-[3-hydroxypropylamino]pyrimidin-4-yl)-N-1H-imidazole] had a pIC50 of 7.27. `OCCCNc1nccc(-c2[nH]c(-c3c(Cl)cncc3Cl)nc2-c2cccc(OCc3ccccc3)c2)n1` [Example H4, 2-(3,5-dichloropyridin-4-yl)-4-(3-benzyloxyphenyl)-5-(2-[3-hydroxypropyl-amino]pyrimidin-4-yl)-N-1H-imidazole] had a pIC50 of 7.64.
